{"source": "patent US10758607B2", "about": "“Respiratory syncytial virus having cleavage-resistant G protein and related materials and methods” (The Research Institute at Nationwide Children's Hospital, priority 2015, dated 2020)", "key": {"HAE cultures": {"system": "HAE cultures", "test": "Infection of HAE cultures by rgRSV produced in the presence of cathepsin L inhibitor", "type": "cell-based, human", "method": "(§1) At 72 hpi the medium was collected and virus pelleted through a 35% sucrose cushion to partially purify and concentrate it. The virus pellet was resuspended and half was further purified by linear sucrose density gradient. The G protein from these purified virions was analyzed by immunoblot. The G protein from HeLa cell virions migrated at 90 kDa and was not affected by the inhibitor (FIG. 5A). […] FIG. 5A was generated by inoculating HeLa or Vero cells for 2 h and treating them with cathepsin L inhibitor or DMSO beginning at 8 hpi.\nThe remaining virus that had been partially purified through the 35% sucrose cushion was titrated on HeLa cells. Equivalent amounts of infectious virus, determined on HeLa cells, were used to inoculate HAE cultures. […] For FIG. 5B, equivalent amount of infectious virus, determined by titration on HeLa cells, was used to inoculate HAE cultures. 48 hpi green cells were counted. *p<0.0001 (unpaired, 2-tailed t-test).\nPrimary, well-differentiated human airway epithelial (HAE) cultures were generated from human airway tissue (Fulcher et al., Methods Mol Med (2005) 107:183-206). For infection experiments they were grown on collagen coated Trans-well inserts (Corning Incorporated). […]\n(§2) The effect of protease inhibitors on the infectivity of RSV produced by Vero and HeLa cells was tested by inoculating cells and 2 hpi media was changed. […] Fractions containing virus were separated by SDS-PAGE and G protein detected by immunoblot using a mAb, L9 (Edward Walsh, University of Rochester).\nThe apical surface of well-differentiated HAE cultures in Trans-wells was washed with DPBS for 2 h and the basal medium changed before equivalent pfu (titrated in HeLa cells), between 2,000 and 10,000 pfu, depending on the HAE culture source, were diluted in HAE medium and added to the apical chamber of the Trans-well. […] Fluorescent (green) cells were visualized with an EVOS fl inverted fluorescence microscope (Life Technologies) and counted in HeLa cultures at 24 hpi and on HAE cultures at 48 hpi. Three or more experiments were pooled and analyzed together."}, "[1]": {"system": "RSV G protein cleavage in Vero cells", "test": "Cell-surface RSV G protein cleavage in rgRSV-infected cells treated with protease inhibitors (biotinylation, immunoblot with mAb L9)", "type": "cell-based", "conditions": "RSV-infected HeLa and Vero cells; 0.1 to 100 μM at 6 hpi; 24 hpi", "method": "To elucidate the class of protease responsible for G protein cleavage in Vero cells, cells were treated with increasing concentrations of protease inhibitors after inoculating with recombinant green fluorescent protein expressing RSV (rgRSV). Cells were incubated with rgRSV for 2 h with tipping at 37° C. before replacing inoculum with fresh cell culture medium. Drugs were added at different times post infection. In each case, uninfected, no drug, and vehicle (at the highest concentration used) were included in all experiments as controls. In all experiments at 24 hpi, cell surface proteins were biotinylated, cells lysed and equivalent amounts of protein from each sample were mixed with streptavidin beads.\nAprotinin, a serine protease inhibitor, leupeptin, a serine/cysteine protease inhibitor; or E-64, a cysteine protease inhibitor were added to the cell culture media (3.125 to 50 μg/ml) from 2-24 hpi. The most likely proteins to be incorporated into the virions are cell surface proteins, so the cell surfaced was biotinylated, proteins isolated from lysed cells with streptavidin beads, and immunobloted with L9, a mAb to the G protein, as a probe (FIG. 1A). In the untreated and vehicle treated samples most of the cell surface G protein was cleaved (˜55 kDa), leaving only a small portion of full length (˜90 kDa) G protein. […] Since both leupeptin and E64 block the activity of cysteine proteases, the protease responsible for cleavage of the G protein in Vero cells is a cysteine protease.\nTo narrow the field of cysteine proteases, cells were treated at 6 hpi with a more specific cysteine protease inhibitor, ALLM (0.1 to 100 μM).\nRSV-infected HeLa and Vero cells were treated with a cathepsin B inhibitor, CA-074 (0.1 to 100 μM), or a cathepsin L inhibitor, cathepsin L inhibitor III (0.1 to 100 μM) 6 hpi.\nCathepsin L is a protease present primarily in the interior of the lysosome and is optimally active at acidic pH. Vero cells expressing the G protein were treated with chloroquine to raise the pH of the lysosome. […] To generate FIG. 4C, cells were inoculated with RSV or mock inoculated. 6 hpi the cells were treated with increasing concentrations of chloroquine. 24 hpi cells were biotinylated and G protein assayed\nHeLa and Vero cells were rgRSV (MOI: 1) or mock inoculated. 2 hpi the inoculum was replaced with fresh complete medium, and 4 hpi cells the medium was changed again to complete medium with 2-fold dilutions of these protease inhibitors (Sigma-Aldrich, St. Louis, Mo.), dissolved in water: Aprotinin (3.125 to 50 μg/ml); Leupeptin (6.25 to 100 μg/ml); E-64 (6.25 to 100 μg/ml); or equal volumes of water in medium. In other experiments, cells were treated at 6 hpi with: 10-fold dilutions (0.1 to 100 μM) of: Cathepsin inhibitor I (Calbiochem); ALLM (Santa Cruz, Dallas, Tex.); Chloroquine diphosphate salt (Sigma Aldrich) or equivalent volumes of vehicle (water); CA-074 (Calbiochem); Cathepsin L inhibitor III (Calbiochem); or an equal volume of vehicle (DMSO) in medium.\nAt 24 hpi cells were biotinylated with Ez-link Sulfo-NHS-LC-Biotin (Thermo Fisher). Cells were lysed with lysis buffer containing 150 mM NaCl, 1% Triton X-100, 50 mM Tris, 0.1% SDS, and 1× Halt protease cocktail inhibitor (Thermo Fisher). Proteins were quantified using BCA protein assay kit (Pierce, Waltham, Mass.), and equal amounts of protein were added to high capacity streptavidin agarose beads (Thermo Fisher). The mixtures were rotated for 1 h at 4° C., the beads were pelleted and washed with lysis buffer (without protease cocktail inhibitor), NuPage LDS sample buffer was added, and boiled for 5 min, separated by NuPAGE Novex 4-12% bis-tris protein gels and transferred to nitrocellulose in an iBlot transfer stack, using the iBlot transferring system (Life Technologies) for immunoblot analysis. […]"}, "[2]": {"system": "G protein from Vero cell virions", "test": "Virion-associated G protein of rgRSV grown in Vero cells with cathepsin L inhibitor (immunoblot)", "type": "cell-based", "conditions": "for virion-associated G protein cleavage: rgRSV grown in Vero cells, 0.5 μM inhibitor at 7 hpi, harvested 72 hpi", "method": "To verify that cathepsin L is sufficient to cleave the G protein, rgRSV was grown in Vero cells in the presence of cathepsin L inhibitor or vehicle. Viruses were harvested and pelleted through a 35% sucrose cushion to separate them from cathepsin L inhibitor. Viruses were resuspended in buffer with pH5.5 and treated with cathepsin L or vehicle. […] Vero cells were inoculated with rgRSV or mock inoculated for 2 h, at which time the inoculum was replaced with fresh medium. Vero cells were treated with medium containing 0.5 μM cathepsin L inhibitor III at 7 hpi. 72 hpi the medium was harvested and virus was pelleted through a 35% sucrose cushion. The pelleted Vero-derived (VeD) virus was resuspended in buffer (pH5.5) containing 50 ng/d cathepsin L or vehicle.\nas §1\nas §2, with “changed. At 7 hpi medium containing […] cathepsin L inhibitor III (Calbiochem, San Diego, Calif.) or an equal volume of the vehicle, DMSO was added to the cells.” for “changed.”"}, "[3]": {"system": "G protein from HeLa cell virions", "test": "Virion-associated G protein of rgRSV grown in HeLa cells with cathepsin L inhibitor (immunoblot)", "type": "cell-based", "conditions": "inhibitor beginning at 8 hpi; virus collected 72 hpi; G migrated at 90 kDa", "method": "as §1\nThe effect of protease inhibitors on the infectivity of RSV produced by Vero and HeLa cells was tested by inoculating cells and 2 hpi media was changed. At 7 hpi medium containing […] cathepsin L inhibitor III (Calbiochem, San Diego, Calif.) or an equal volume of the vehicle, DMSO was added to the cells. 72 hpi virus was harvested as described above, but instead of aliquoting and snap freezing, 15 ml of virus-containing medium was layered on top of 15 ml of 35% sucrose cushion in 1× Hanks Balanced Salt Solution, with calcium and magnesium, and centrifuged overnight at 4° C. and 26,000×g in an F14-14×50cy rotor for Sorvall Lynx 6000 (Thermo Fisher) to remove the drug and partially purify the virus. […] Fractions containing virus were separated by SDS-PAGE and G protein detected by immunoblot using a mAb, L9 (Edward Walsh, University of Rochester)."}}, "note": "Entries after “also recorded” stand apart in the source; their conditions may differ. Where a SMILES comes first, the peptide text is derived from it. The star is where a group is joined. Cbz = O=C(OCc1ccccc1)*; CHN2 = [N-]=[N+]=C*; tBu = CC(C)(C)*"}
{"smiles": "CC(C)(C)Oc1ccc(C[C@H](NC(=O)[C@H](Cc2ccccc2)NC(=O)OCc2ccccc2)C(=O)C=[N+]=[N-])cc1", "note": "[cathepsin L inhibitor III] (Cbz-Phe-Tyr(tBu)-CHN2)", "values": [{"measurement": "ability of Vero-derived virus to infect HAE cells", "setting": "HAE cultures; inhibitor present during viral production", "result": "increasing the ability of Vero-derived virus to infect HAE cells"}, {"measurement": "effect on ability of HeLa grown virus to infect HAE cultures", "setting": "HAE cultures; inhibitor present during virus production in HeLa, green cells counted 48 hpi", "result": "little, if any, effect"}, {"measurement": "increase in ability of Vero-grown virus to infect HAE cells", "setting": "HAE cultures; inhibitor present during virus production in Vero, green cells counted 48 hpi, vs DMSO", "result": 7, "unit": "fold"}, {"measurement": "G protein cleavage (cell surface G protein)", "setting": "[1]", "result": "prevention of cleavage; also recorded: almost completely prevented G protein cleavage"}, {"measurement": "migration of G protein from Vero cell virions", "setting": "[2]; inhibitor beginning at 8 hpi, virus collected 72 hpi, without inhibitor primarily 55 kDa", "result": "converted to 90 kDa"}, {"measurement": "virion-associated G protein cleavage", "setting": "[2]", "result": "cleavage is prevented"}, {"measurement": "virion-associated G protein cleavage", "setting": "[2]; listed as cathepsin L inhibitor", "result": "cleavage prevention"}, {"measurement": "migration of G protein from HeLa cell virions", "setting": "[3]", "result": "not affected"}]}
